Laboratory results: patent publication US20240115654A1, “INTRAVENOUS ADMINISTRATION OF ENGINEERED ANTIMICROBIAL AMPHIPHILIC PEPTIDES” (priority 2021, published 2024)
Where two headings read alike, the source gives them in different places. Peptide text beside a SMILES is read from it.

Conditions: human, in vivo
[1] = single 1-hour infusion 0.05 mg/kg, Geometric Mean
[2] = single 1-hour infusion 0.05 mg/kg, Mean
[3] = single 1-hour infusion 0.05 mg/kg, Median
[4] = single 1-hour infusion 0.05 mg/kg, individual subjects
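Also: phase 1 study in human subjects given one IV dose of the peptide, enrolled in sequential ascending-dose cohorts and randomized to peptide or placebo.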

Procedure: Administration was a single 1-hour infusion.
Subjects were enrolled in sequential cohorts of peptide ascending dose levels and randomly assigned to receive a single IV administration of either peptide or placebo over 1 to 2 hours. […] In addition, the infusion volume was adjusted for Cohort 4 to maintain drug concentrations in line with Cohort 2
Blood samples for PK assessment were collected at pre-dose, at the midpoint of infusion, within 1 minute after the end-of-infusion and at 0.5, 1, 2, 4, 6, 8, 12, 20, 24, 36 and 48 hours after the end-of-infusion.
The pharmaceutical composition was stored at 2° C. to 8° C. for up to 14 days and then 15° C. to 25° C. for up to 48 hours for dosing.
Subjects were enrolled in sequential cohorts of peptide ascending dose levels and randomly assigned to receive a single IV administration of either peptide or placebo over 1 to 2 hours.

SMILES: CC(C)[C@H](NC(=O)[C@H](Cc1c[nH]c2ccccc12)NC(=O)[C@H](CCCNC(=N)N)NC(=O)[C@H](CCCNC(=N)N)NC(=O)[C@@H](NC(=O)[C@@H](NC(=O)[C@H](CCCNC(=N)N)NC(=O)[C@@H](NC(=O)[C@@H](NC(=O)[C@H](CCCNC(=N)N)NC(=O)[C@H](CCCNC(=N)N)NC(=O)[C@H](Cc1c[nH]c2ccccc12)NC(=O)[C@@H](NC(=O)[C@H](CCCNC(=N)N)NC(=O)[C@H](CCCNC(=N)N)NC(=O)[C@@H](NC(=O)[C@H](CCCNC(=N)N)NC(=O)[C@H](CCCNC(=N)N)NC(=O)[C@@H](NC(=O)[C@H](Cc1c[nH]c2ccccc12)NC(=O)[C@H](CCCNC(=N)N)NC(=O)[C@@H](N)CCCNC(=N)N)C(C)C)C(C)C)C(C)C)C(C)C)C(C)C)C(C)C)C(C)C)C(=O)N[C@@H](CCCNC(=N)N)C(=O)N[C@@H](CCCNC(=N)N)C(N)=O [SEQ ID NO: 1] (H-RRWVRRVRRVWRRVVRVVRRWVRR-NH2)
- clearance: 40.3 to 69.7 mL/min
- AUC(0-inf) (0.05 mg/kg, AUC0-inf, 0.05 mg/kg 1-hr infusion): 1580 ng·h/mL
- AUC(0-t) (0.05 mg/kg, AUC0-t, 0.05 mg/kg 1-hr infusion): 1280 ng·h/mL
- AUC(0-inf) (0.05 mg/kg, AUC0-∞): 1580 ng·h/mL
- Cmax (0.05 mg/kg, 0.05 mg/kg 1-hr infusion): 256 ng/mL
- AUC(0-t) (0.05 mg/kg, mean AUC0-t): 1280 ng·h/mL
- half-life (0.05 mg/kg, t1/2, 0.05 mg/kg 1-hr infusion): 7.4 h
- AUC(0-inf) (0.5 mg/kg, AUC0-inf, 0.5 mg/kg 2-hr infusion): 9090 ng·h/mL
- AUC(0-t) (0.5 mg/kg, AUC0-t, 0.5 mg/kg 2-hr infusion): 8330 ng·h/mL
- Cmax (0.5 mg/kg, 0.5 mg/kg 2-hr infusion): 1830 ng/mL
- half-life (0.5 mg/kg, t1/2, 0.5 mg/kg 2-hr infusion): 16.2 h
- AUC(0-inf) (1 mg/kg, AUC0-∞): 21100 ng·h/mL
- AUC(0-t) (1 mg/kg, mean AUC0-t): 21600 ng·h/mL
- AUC(0-t) (AUC0-24, single 1-hour infusion 0.05 mg/kg, Geometric Mean): 1230 ng·h/mL
- AUC(0-t) (AUC0-24, single 1-hour infusion 0.05 mg/kg, Mean): 1290 ng·h/mL
- AUC(0-t) (AUC0-24, single 1-hour infusion 0.05 mg/kg, Median): 1350 ng·h/mL
- AUC(0-inf) (AUC0-inf, single 1-hour infusion 0.05 mg/kg, Geometric Mean): 1600 ng·h/mL
- AUC(0-inf) (AUC0-inf, single 1-hour infusion 0.05 mg/kg, Mean): 1610 ng·h/mL
- AUC(0-inf) (AUC0-inf, single 1-hour infusion 0.05 mg/kg, Median): 1520 ng·h/mL
- AUC(0-inf) (AUC0-inf, single 1-hour infusion 0.05 mg/kg, individual subjects): 1400 ng·h/mL
- AUC(0-t) (AUC0-t, single 1-hour infusion 0.05 mg/kg, Geometric Mean): 1220 ng·h/mL
- AUC(0-t) (AUC0-t, single 1-hour infusion 0.05 mg/kg, Mean): 1310 ng·h/mL
- AUC(0-t) (AUC0-t, single 1-hour infusion 0.05 mg/kg, Median): 1350 ng·h/mL
- CL/F [1]: 0.522 mL/min/kg
- CL/F [2]: 0.525 mL/min/kg
- CL/F [3]: 0.548 mL/min/kg
- CL/F [4]: 0.595 mL/min/kg
- Cmax [1]: 251 ng/mL
- Cmax [2]: 256 ng/mL
- Cmax [3]: 262 ng/mL
- Tmax [1]: 1 h
- Tmax [2]: 1 h
- Tmax [3]: 1 h
- Tmax [4]: 1 h
- Tmax (single 1-hour infusion […], individual subjects): 1 h
- half-life ([…], t1/2, […] 1-hr infusion): 10.5 h
- half-life ([…], t1/2, […] 1-hr infusion (only 3 subjects)): 19.9 h
- half-life ([…], t1/2, […] 2-hr infusion): 13.2 h
- AUC(0-t) (iv, 0.05 mg/kg, AUC0-t, 0.05 mg/kg IV 1-hr infusion): 1280 ng·h/mL
- AUC(0-inf) (iv, 0.05 mg/kg, AUC0-∞, 0.05 mg/kg IV 1-hr infusion): 1580 ng·h/mL
- AUC(0-t) (iv, 0.05 mg/kg, AUC(0-24), Actual mean, Phase 1 subjects, 0.05 mg/kg IV): 1290 ng·h/mL
- Cmax (iv, 0.05 mg/kg, 0.05 mg/kg IV 1-hr infusion): 256 ng/mL
- half-life (iv, 0.05 mg/kg, t1/2, 0.05 mg/kg IV 1-hr infusion): 7.37 h
- AUC(0-t) (iv, 0.5 mg/kg, AUC0-t, 0.5 mg/kg IV 2-hr infusion): 8330 ng·h/mL
- AUC(0-inf) (iv, 0.5 mg/kg, AUC0-∞, 0.5 mg/kg IV 2-hr infusion): 9090 ng·h/mL
- Cmax (iv, 0.5 mg/kg, 0.5 mg/kg IV 2-hr infusion): 1830 ng/mL
- half-life (iv, 0.5 mg/kg, t1/2, 0.5 mg/kg IV 2-hr infusion): 16.2 h
- AUC(0-t) (iv, 1 mg/kg, AUC0-t, 1 mg/kg IV 4-hr infusion): 21600 ng·h/mL
- AUC(0-inf) (iv, 1 mg/kg, AUC0-∞, 1 mg/kg IV 4-hr infusion): 21100 ng·h/mL
- Cmax (iv, 1 mg/kg, 1 mg/kg IV 4-hr infusion): 2650 ng/mL
- half-life (iv, 1 mg/kg, t1/2, 1 mg/kg IV 4-hr infusion): 20 h
- AUC(0-t) (iv, AUC0-24, Cohort 1, 0.05 mg/kg IV infusion, Geometric Mean): 1230 ng·h/mL
- AUC(0-t) (iv, AUC0-24, Cohort 1, 0.05 mg/kg IV infusion, Mean): 1290 ng·h/mL
- AUC(0-t) (iv, AUC0-24, Cohort 1, 0.05 mg/kg IV infusion, Median): 1350 ng·h/mL
- AUC(0-t) (iv, AUC0-24, Cohort 1, 0.05 mg/kg IV infusion, cohort Geometric Mean): 1230 ng·h/mL
- AUC(0-t) (iv, AUC0-24, Cohort 1, 0.05 mg/kg IV infusion, cohort Mean): 1290 ng·h/mL
- AUC(0-t) (iv, AUC0-24, Cohort 1, 0.05 mg/kg IV infusion, cohort Median): 1350 ng·h/mL
- AUC(0-t) (iv, AUC0-24, Cohort 4, 0.5 mg/kg IV infusion 2 hours, Geometric Mean): 6930 ng·h/mL
- AUC(0-t) (iv, AUC0-24, Cohort 4, 0.5 mg/kg IV infusion 2 hours, Mean): 7390 ng·h/mL
- AUC(0-t) (iv, AUC0-24, Cohort 4, 0.5 mg/kg IV infusion 2 hours, Median): 7270 ng·h/mL
- AUC(0-t) (iv, AUC0-24, Cohort 4, 0.5 mg/kg IV, infusion 2 hours, cohort Geometric Mean): 6930 ng·h/mL
- AUC(0-t) (iv, AUC0-24, Cohort 4, 0.5 mg/kg IV, infusion 2 hours, cohort Mean): 7390 ng·h/mL
- AUC(0-t) (iv, AUC0-24, Cohort 4, 0.5 mg/kg IV, infusion 2 hours, cohort Median): 7270 ng·h/mL
- AUC(0-t) (iv, AUC0-24, Cohort 5, 1 mg/kg IV infusion 4 hours, Geometric Mean): 17300 ng·h/mL
- AUC(0-t) (iv, AUC0-24, Cohort 5, 1 mg/kg IV infusion 4 hours, Mean): 18000 ng·h/mL
- AUC(0-t) (iv, AUC0-24, Cohort 5, 1 mg/kg IV infusion 4 hours, Median): 14800 ng·h/mL
- AUC(0-inf) (iv, AUC0-inf, Cohort 1, 0.05 mg/kg IV infusion, Geometric Mean): 1600 ng·h/mL
- AUC(0-inf) (iv, AUC0-inf, Cohort 1, 0.05 mg/kg IV infusion, Mean): 1610 ng·h/mL
- AUC(0-inf) (iv, AUC0-inf, Cohort 1, 0.05 mg/kg IV infusion, Median): 1520 ng·h/mL
- AUC(0-inf) (iv, AUC0-inf, Cohort 1, 0.05 mg/kg IV infusion, cohort Geometric Mean): 1600 ng·h/mL
- AUC(0-inf) (iv, AUC0-inf, Cohort 1, 0.05 mg/kg IV infusion, cohort Mean): 1610 ng·h/mL
- AUC(0-inf) (iv, AUC0-inf, Cohort 1, 0.05 mg/kg IV infusion, cohort Median): 1520 ng·h/mL
- AUC(0-inf) (iv, AUC0-inf, Cohort 1, 0.05 mg/kg IV infusion, individual subject): 1400 ng·h/mL
- AUC(0-inf) (iv, AUC0-inf, Cohort 1, 0.05 mg/kg IV infusion, individual subjects): 1400 ng·h/mL
- AUC(0-inf) (iv, AUC0-inf, Cohort 4, 0.5 mg/kg IV infusion 2 hours, Geometric Mean): 8530 ng·h/mL
- AUC(0-inf) (iv, AUC0-inf, Cohort 4, 0.5 mg/kg IV infusion 2 hours, Mean): 9200 ng·h/mL
- AUC(0-inf) (iv, AUC0-inf, Cohort 4, 0.5 mg/kg IV infusion 2 hours, Median): 9540 ng·h/mL
- AUC(0-inf) (iv, AUC0-inf, Cohort 4, 0.5 mg/kg IV, infusion 2 hours, cohort Geometric Mean): 8530 ng·h/mL
- AUC(0-inf) (iv, AUC0-inf, Cohort 4, 0.5 mg/kg IV, infusion 2 hours, cohort Mean): 9200 ng·h/mL
- AUC(0-inf) (iv, AUC0-inf, Cohort 4, 0.5 mg/kg IV, infusion 2 hours, cohort Median): 9540 ng·h/mL
- AUC(0-inf) (iv, AUC0-inf, Cohort 5, 1 mg/kg IV infusion 4 hours, Geometric Mean): 21100 ng·h/mL
- AUC(0-inf) (iv, AUC0-inf, Cohort 5, 1 mg/kg IV infusion 4 hours, Mean): 21300 ng·h/mL
- AUC(0-inf) (iv, AUC0-inf, Cohort 5, 1 mg/kg IV infusion 4 hours, Median): 21000 ng·h/mL
- AUC(0-inf) (iv, AUC0-inf, Cohort 5, 1 mg/kg IV infusion 4 hours, individual subject): 22100 ng·h/mL
- AUC(0-t) (iv, AUC0-t, Cohort 1, 0.05 mg/kg IV infusion, Geometric Mean): 1220 ng·h/mL
- AUC(0-t) (iv, AUC0-t, Cohort 1, 0.05 mg/kg IV infusion, Mean): 1310 ng·h/mL
- AUC(0-t) (iv, AUC0-t, Cohort 1, 0.05 mg/kg IV infusion, Median): 1350 ng·h/mL
- AUC(0-t) (iv, AUC0-t, Cohort 1, 0.05 mg/kg IV infusion, cohort Geometric Mean): 1220 ng·h/mL
- AUC(0-t) (iv, AUC0-t, Cohort 1, 0.05 mg/kg IV infusion, cohort Mean): 1310 ng·h/mL
- AUC(0-t) (iv, AUC0-t, Cohort 1, 0.05 mg/kg IV infusion, cohort Median): 1350 ng·h/mL
- AUC(0-t) (iv, AUC0-t, Cohort 4, 0.5 mg/kg IV infusion 2 hours, Geometric Mean): 7830 ng·h/mL
- AUC(0-t) (iv, AUC0-t, Cohort 4, 0.5 mg/kg IV infusion 2 hours, Mean): 8440 ng·h/mL
- AUC(0-t) (iv, AUC0-t, Cohort 4, 0.5 mg/kg IV infusion 2 hours, Median): 8540 ng·h/mL
- AUC(0-t) (iv, AUC0-t, Cohort 4, 0.5 mg/kg IV, infusion 2 hours, cohort Geometric Mean): 7830 ng·h/mL
- AUC(0-t) (iv, AUC0-t, Cohort 4, 0.5 mg/kg IV, infusion 2 hours, cohort Mean): 8440 ng·h/mL
- AUC(0-t) (iv, AUC0-t, Cohort 4, 0.5 mg/kg IV, infusion 2 hours, cohort Median): 8540 ng·h/mL
- AUC(0-t) (iv, AUC0-t, Cohort 5, 1 mg/kg IV infusion 4 hours, Geometric Mean): 20400 ng·h/mL
- AUC(0-t) (iv, AUC0-t, Cohort 5, 1 mg/kg IV infusion 4 hours, Mean): 21200 ng·h/mL
- AUC(0-t) (iv, AUC0-t, Cohort 5, 1 mg/kg IV infusion 4 hours, Median): 17600 ng·h/mL
- Cmax (iv, Cohort 1, 0.05 mg/kg IV infusion, Geometric Mean): 251 ng/mL
- Cmax (iv, Cohort 1, 0.05 mg/kg IV infusion, Mean): 256 ng/mL
- Cmax (iv, Cohort 1, 0.05 mg/kg IV infusion, Median): 262 ng/mL
- Cmax (iv, Cohort 1, 0.05 mg/kg IV infusion, cohort Geometric Mean): 251 ng/mL
- Cmax (iv, Cohort 1, 0.05 mg/kg IV infusion, cohort Mean): 256 ng/mL
- Cmax (iv, Cohort 1, 0.05 mg/kg IV infusion, cohort Median): 262 ng/mL
- Cmax (iv, Cohort 4, 0.5 mg/kg IV infusion 2 hours, Geometric Mean): 1770 ng/mL
- Cmax (iv, Cohort 4, 0.5 mg/kg IV infusion 2 hours, Mean): 1830 ng/mL
